Assay [1] deals with Human recombinant Acetyl-CoA Carboxylase 1 (ACC1) (Homo sapiens, UniProt Q13085). Put plainly: Assay Y: ACC1 inhibition, inorganic phosphate (Malachite Green). Type of assay: biochemical. As to conditions: Assay Y: room temperature, 3 hr, 15 min preincubation. On the procedure: (§1) Preincubation of 6 μL enzyme together with 0.3 μL compound for 15 min was done before the reaction was initiated by the addition of 4 μL substrate. […] After 3 hr the reaction was stopped by addition of 60 μL of water followed by 30 μL Malachite Green solution. The Malachite Green solution was prepared by mixing 16.4 mL ammonium molybdate solution (7.5%), 1.64 mL Tween (11%) with 82 mL Malachite Green/H2SO4-solution (0.7 g Malachite Green to 1000 mL of 10% (v/v) H2SO4). Plates were left for 10 min at room temperature before reading the absorbance at 670 nm. All compounds were tested in triplicate at 10 different concentrations. Control compound (0, 50 and 100% effect) was included on each plate. […] An IC50 value was derived by non-linear regression curve fitting using the following equation: […]))) where A is the non-specific binding, B is the total binding, C is the IC50 and D is the slope. Saturation binding Kd and Bmax were derived using the equation y=((B1 max*x)/(Kd+x)).

Assay [2] addresses Human recombinant Acetyl-CoA Carboxylase 2 (ACC2) (Homo sapiens, UniProt O00763). Put plainly: Assay Y: ACC2 inhibition, inorganic phosphate (Malachite Green). Type of assay: biochemical. The following applies: Assay Y: room temperature, 3 hr, 15 min preincubation. On the procedure: as §1

What is called IC50 is the concentration at which inhibition is half-maximal.

Chain of Human recombinant Acetyl-CoA Carboxylase 2 (ACC2) (O00763 whole entry): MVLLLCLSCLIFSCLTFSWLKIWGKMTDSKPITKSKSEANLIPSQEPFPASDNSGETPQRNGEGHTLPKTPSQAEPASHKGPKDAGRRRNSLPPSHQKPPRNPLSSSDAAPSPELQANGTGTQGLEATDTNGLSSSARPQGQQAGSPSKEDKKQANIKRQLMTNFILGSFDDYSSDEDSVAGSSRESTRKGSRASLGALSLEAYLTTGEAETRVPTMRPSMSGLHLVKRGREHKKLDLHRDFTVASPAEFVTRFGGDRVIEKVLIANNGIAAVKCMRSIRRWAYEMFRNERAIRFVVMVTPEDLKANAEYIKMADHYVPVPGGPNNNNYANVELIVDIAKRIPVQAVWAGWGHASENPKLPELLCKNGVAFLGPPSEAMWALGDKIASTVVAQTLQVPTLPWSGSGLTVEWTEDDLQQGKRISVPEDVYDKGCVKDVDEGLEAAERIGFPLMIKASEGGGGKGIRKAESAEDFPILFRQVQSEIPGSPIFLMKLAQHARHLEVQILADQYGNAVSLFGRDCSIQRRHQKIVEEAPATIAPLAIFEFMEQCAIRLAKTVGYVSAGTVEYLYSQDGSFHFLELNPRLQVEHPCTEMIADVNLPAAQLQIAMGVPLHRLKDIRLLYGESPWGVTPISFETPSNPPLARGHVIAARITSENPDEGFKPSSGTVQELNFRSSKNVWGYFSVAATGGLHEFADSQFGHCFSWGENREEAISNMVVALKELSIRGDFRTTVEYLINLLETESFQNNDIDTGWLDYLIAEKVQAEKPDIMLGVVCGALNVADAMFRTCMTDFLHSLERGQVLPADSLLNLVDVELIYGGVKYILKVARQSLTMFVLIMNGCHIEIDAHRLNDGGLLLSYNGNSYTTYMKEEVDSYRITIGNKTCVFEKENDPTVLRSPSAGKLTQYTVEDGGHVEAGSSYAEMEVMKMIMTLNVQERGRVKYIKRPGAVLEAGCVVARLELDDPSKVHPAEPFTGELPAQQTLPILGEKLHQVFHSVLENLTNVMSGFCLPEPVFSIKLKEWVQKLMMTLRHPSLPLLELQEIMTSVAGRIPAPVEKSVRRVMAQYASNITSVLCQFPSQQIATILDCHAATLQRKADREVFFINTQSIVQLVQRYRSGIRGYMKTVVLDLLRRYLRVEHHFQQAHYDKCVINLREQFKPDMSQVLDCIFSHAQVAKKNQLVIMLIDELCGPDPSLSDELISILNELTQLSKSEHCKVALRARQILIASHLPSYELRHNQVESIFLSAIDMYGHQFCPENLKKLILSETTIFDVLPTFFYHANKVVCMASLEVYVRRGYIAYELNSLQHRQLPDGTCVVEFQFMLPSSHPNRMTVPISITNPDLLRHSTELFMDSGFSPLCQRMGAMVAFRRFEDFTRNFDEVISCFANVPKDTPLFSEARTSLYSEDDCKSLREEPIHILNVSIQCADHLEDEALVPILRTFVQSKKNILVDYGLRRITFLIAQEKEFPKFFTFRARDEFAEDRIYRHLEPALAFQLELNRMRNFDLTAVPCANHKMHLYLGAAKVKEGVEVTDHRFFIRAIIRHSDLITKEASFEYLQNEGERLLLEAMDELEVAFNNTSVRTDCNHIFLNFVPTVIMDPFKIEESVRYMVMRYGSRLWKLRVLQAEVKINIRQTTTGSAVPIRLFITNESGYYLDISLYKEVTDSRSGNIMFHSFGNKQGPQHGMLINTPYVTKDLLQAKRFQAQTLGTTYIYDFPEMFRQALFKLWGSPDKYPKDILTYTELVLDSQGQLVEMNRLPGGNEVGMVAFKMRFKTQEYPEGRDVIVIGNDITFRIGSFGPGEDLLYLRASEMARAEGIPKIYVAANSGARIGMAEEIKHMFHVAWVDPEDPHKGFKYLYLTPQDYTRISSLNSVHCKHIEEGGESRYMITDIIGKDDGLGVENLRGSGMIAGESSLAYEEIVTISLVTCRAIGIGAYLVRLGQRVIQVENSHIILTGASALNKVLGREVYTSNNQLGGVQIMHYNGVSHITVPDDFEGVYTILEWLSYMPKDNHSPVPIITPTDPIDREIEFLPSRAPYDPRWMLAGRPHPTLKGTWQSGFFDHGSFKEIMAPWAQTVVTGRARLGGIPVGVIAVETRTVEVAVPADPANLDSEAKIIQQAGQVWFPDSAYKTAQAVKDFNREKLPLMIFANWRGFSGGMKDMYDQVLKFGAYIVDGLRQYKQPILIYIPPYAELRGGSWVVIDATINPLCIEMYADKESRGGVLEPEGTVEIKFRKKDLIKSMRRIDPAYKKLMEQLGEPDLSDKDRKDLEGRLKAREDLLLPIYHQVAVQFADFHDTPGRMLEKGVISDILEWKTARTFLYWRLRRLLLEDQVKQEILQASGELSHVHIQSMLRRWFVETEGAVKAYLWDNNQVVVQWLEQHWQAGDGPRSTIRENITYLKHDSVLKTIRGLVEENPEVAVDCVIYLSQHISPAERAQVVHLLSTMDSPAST

In the case of `CCOC(=O)CN(C[C@H]1CC[C@H](CNC(=O)OC(C)(C)C)CC1)S(=O)(=O)c1ccc2ccccc2c1` [Example 81, Ethyl N-[(trans-4-{[(tert-butoxycarbonyl)amino]methyl}cyclohexyl)methyl]-N-(2-naphthylsulfonyl)glycinate], the IC50 in assay [1] was more than 20 µM; in assay [2], 3.03 µM.

For `COc1ccccc1-c1cc(C(=O)NC[C@H]2CC[C@H](CNC(=O)OC(C)(C)C)CC2)c2ccccc2n1` [Example 23, tert-Butyl ({trans-4-[({[2-(2-methoxyphenyl)quinolin-4-yl]carbonyl}amino)methyl]-cyclohexyl}methyl)carbamate], the IC50 is 3.27 µM in assay [1] and 0.46 µM in assay [2].

As to `CC(C)(C)OC(=O)NC[C@H]1CC[C@H](CNS(=O)(=O)c2ccc(-c3ccccc3)cc2)CC1` [Example 67, tert-Butyl [(trans-4-{[(biphenyl-4-ylsulfonyl)amino]methyl}cyclohexyl)methyl]-carbamate], the values for the half-maximal inhibitory concentration (IC50) in assay [1] and in assay [2] were more than 20 µM and 3.29 µM, respectively.

With `CCOC(=O)NC[C@H]1CC[C@H](CNC(=O)c2cc(-c3ccccc3)nc3ccccc23)CC1` [Example 62, Ethyl {[trans-4-({[(2-phenylquinolin-4-yl)carbonyl]amino}methyl)cyclohexyl]methyl}-carbamate], the values for the IC50 in assay [1] and in assay [2] were 3.07 µM and 2.77 µM, respectively.

`NS(=O)(=O)c1ccc(-c2cc(C(=O)NC[C@H]3CC[C@H](CNC(=O)O[C@H]4CCOC4)CC3)c3ccccc3n2)cc1` [Example 139, (3S)-Tetrahydrofuran-3-yl[(trans-4-{[({2-[4-(aminosulfonyl)phenyl]-quinolin-4-yl}carbonyl)amino]-methyl}cyclohexyl)-methyl]carbamate]: the IC50 in assay [1] is 3.34 µM; in assay [2], 0.53 µM.

Turning to `CCOC(=O)NC[C@H]1CC[C@H](CNC(=O)c2cc(-c3ccc(C(=O)N(C)C)cc3)nc3ccccc23)CC1` [Example 18, Ethyl [(trans-4-{[({2-[4-(dimethylcarbamoyl)phenyl]quinolin-4-yl}carbonyl)amino]-methyl}cyclohexyl)methyl]carbamate], the IC50 came to 4.85 µM in assay [1] and 1.8 µM in assay [2].

For `CNS(=O)(=O)c1ccc(-c2cc(C(=O)NC[C@H]3CC[C@H](CNC(=O)OC(C)(C)C)CC3)c3ccccc3n2)cc1` [Example 134, tert-Butyl {[trans-4-({[(2-{4-[(methylamino)sulfonyl]-phenyl}quinolin-4-yl)carbonyl]amino}methyl)cyclohexyl]methyl}-carbamate], the IC50 in assay [1] was determined as 0.53 µM; in assay [2] it was 0.1 µM.

With `COc1ccc(-c2cc(C(=O)NC[C@H]3CC[C@H](CNC(=O)OC(C)(C)C)CC3)ccn2)c(OC)c1` [Example 47, tert-Butyl {[trans-4-({[2-(2,4-dimethoxyphenyl)isonicotinoyl]amino}methyl)cyclohexyl]methyl}carbamate], the IC50 in assay [1] was 14.1 µM; in assay [2] it was 9.85 µM.

For the compound `CC(C)(C)OC(=O)NC[C@H]1CC[C@H](CNC(=O)c2cc(Cl)nc3ccccc23)CC1` [Example 35, tert-butyl {[trans-4-({[(2-chloroquinolin-4-yl)carbonyl]amino}methyl)cyclohexyl]-methyl}carbamate], the IC50 is 9.96 µM in assay [1] and 3.84 µM in assay [2].

With `CC(C)(C)OC(=O)NC[C@H]1CC[C@H](CNC(=O)c2cc(-c3cc[n+]([O-])cc3)nc3ccccc23)CC1` [Example 94, tert-Butyl ({trans-4-[({[2-(1-oxidopyridin-4-yl)quinolin-4-yl]carbonyl}amino)methyl]-cyclohexyl}methyl)carbamate], the IC50 in assay [1] was determined as 5.47 µM; in assay [2], 0.93 µM.

In the case of `CC(=O)NCc1ccc(-c2cc(C(=O)NC[C@H]3CC[C@H](CNC(=O)OC(C)(C)C)CC3)c3ccccc3n2)cc1` [Example 103, tert-Butyl [(trans-4-{[({2-[4-(acetamidomethyl)phenyl]quinolin-4-yl}carbonyl)-amino]methyl}cyclohexyl)methyl]carbamate], the IC50 was determined as 0.2 µM in assay [1] and 0.04 µM in assay [2].

On to `CCOc1ccc(-c2cc(C(=O)NC[C@H]3CC[C@H](CNC(=O)OC(C)(C)C)CC3)c3ccccc3n2)cc1` [Example 4, tert-Butyl ({trans-4-[({[2-(4-ethoxyphenyl)quinolin-4-yl]carbonyl}amino)methyl]-cyclohexyl}methyl)carbamate], for which the figures for the IC50 in assay [1] and in assay [2] were 1.33 µM and 0.39 µM, respectively.

As for `CCOc1ccc(-c2cc(C(=O)NC[C@H]3CC[C@H](CNC(=O)OC(C)(C)C)CC3)ccn2)cn1` [Example 46, tert-Butyl {[trans-4-({[(6′-ethoxy-2,3′-bipyridin-4-yl)carbonyl]amino}methyl)cyclohexyl]methyl}carbamate], the results for the IC50 in assay [1] and in assay [2] were more than 20 µM and 9.53 µM, respectively.

Regarding `CC(=O)Nc1nc(C)sc1S(=O)(=O)NC[C@H]1CC[C@H](CNC(=O)OC(C)(C)C)CC1` [Example 77, tert-Butyl {[trans-4-({[(4-acetamido-2-methyl-1,3-thiazol-5-yl)sulfonyl]amino}methyl)-cyclohexyl]methyl}carbamate], the IC50 in assay [1] was 9.32 µM; in assay [2], 3.62 µM.

Consider `CC(=O)NCc1cccc(-c2cc(C(=O)NC[C@H]3CC[C@H](CNC(=O)OC(C)(C)C)CC3)c3ccccc3n2)c1` [Example 100, tert-Butyl [(trans-4-{[({2-[3-(acetamidomethyl)phenyl]quinolin-4-yl}carbonyl)amino]-methyl}cyclohexyl)methyl]carbamate], for which the IC50 in assay [1] came to 0.59 µM; in assay [2] it was 0.11 µM.

Regarding `CN1CCN(c2ccc(-c3cc(C(=O)NC[C@H]4CC[C@H](CNC(=O)OCC(F)F)CC4)c4ccccc4n3)cn2)CC1` [Example 117, 2,2-Difluoroethyl[(trans-4-{[({2-[6-(4-methylpiperazin-1-yl)pyridin-3-yl]quinolin-4-yl}carbonyl)amino]methyl}cyclohexyl)methyl]carbamate], the figures for the IC50 in assay [1] and in assay [2] were 0.96 µM and 0.41 µM, respectively.

Turning to `CC(C)(C)NC(=O)NC[C@H]1CC[C@H](CNC(=O)c2cc(-c3ccncc3)nc3ccccc23)CC1` [Example 97, N-[(trans-4-{[(tert-Butylcarbamoyl)amino]methyl}cyclohexyl)methyl]-2-pyridin-4-ylquinoline-4-carboxamide], the figures for the IC50 in assay [1] and in assay [2] were 18.3 µM and 6.14 µM, respectively.

Regarding `COc1ccc(-c2cc(C(=O)NC[C@H]3CC[C@H](CNC(=O)OC(C)(C)C)CC3)ccn2)cc1` [Example 42, tert-Butyl {[trans-4-({[2-(4-methoxyphenyl)isonicotinoyl]amino}methyl)cyclo-hexyl]methyl}carbamate], the IC50 is 12.8 µM in assay [1] and 6.14 µM in assay [2].

For the compound `COc1ccc(-c2cc(C(=O)NC[C@H]3CC[C@H](CNC(=O)OC(C)(C)C)CC3)ccn2)c(OC)n1` [Example 48, tert-Butyl {[trans-4-({[(2′,6′-dimethoxy-2,3′-bipyridin-4-yl)carbonyl]amino}methyl)-cyclohexyl]methyl}carbamate], the IC50 is more than 20 µM in assay [1] and 9.67 µM in assay [2].

As to `CC(C)(C)COC(=O)NC[C@H]1CC[C@H](CNC(=O)c2cc(-c3ccncc3)nc3ccccc23)CC1` [Example 55, 2,2-Dimethylpropyl {[trans-4-({[(2-pyridin-4-ylquinolin-4-yl)carbonyl]amino}methyl)-cyclohexyl]methyl}carbamate], the IC50 in assay [1] was found to be 1.3 µM; in assay [2] it was 0.28 µM.

Source of the values: patent publication US20090306133A1, “New Acetyl Coenzyme A Carboxylase (ACC) Inhibitors And Uses In Treatments Of Obesity And Diabetes Mellitus - 087” (ASTRAZENECA AB, priority 2007, published 2009).
